Reference: patent publication US5344846A, “Compositions and methods for inhibiting deoxyhypusine synthase and the growth of cells” (The United States of America as represented by the …, priority 1992, dated 1994)
Entries after “also recorded” stand apart in the source; their conditions may differ. Where two headings read alike, the source gives them in different places. Each block holds one compound with its values, some of them ahead of it.

Tests used:
[1] = molecular target: T1, deoxyhypusine synthase from rat testis (Rattus norvegicus, UniProt Q6AY53); test: Inhibition of deoxyhypusine synthase ([3H]deoxyhypusine formation from [3H]spermidine), IC50/Ki; assay type: biochemical; conditions: for relative inhibitory potency (in words): comparison with parent amine, bisguanylated counterpart or another inhibitor; for Ki: competitive vs spermidine
T1 construct: as catalyzed by deoxyhypusine synthase from rat testis; from tissue; host or cells: rat testis
T1 sequence (Q6AY53 1-369): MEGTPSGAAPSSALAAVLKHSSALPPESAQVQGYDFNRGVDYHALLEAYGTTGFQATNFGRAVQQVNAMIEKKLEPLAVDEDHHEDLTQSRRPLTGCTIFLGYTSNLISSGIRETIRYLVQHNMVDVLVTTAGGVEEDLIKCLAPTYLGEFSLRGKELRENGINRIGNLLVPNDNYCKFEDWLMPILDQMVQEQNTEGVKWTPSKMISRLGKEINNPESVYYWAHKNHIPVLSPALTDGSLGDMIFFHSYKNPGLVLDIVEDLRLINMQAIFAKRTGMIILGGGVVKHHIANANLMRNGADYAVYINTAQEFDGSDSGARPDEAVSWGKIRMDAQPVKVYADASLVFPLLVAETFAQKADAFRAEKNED
Procedure: The enzyme assay was performed as previously described (see Wolff et al. (1990) J. Biol. Chem. 265:4793-4799; and Park et al. (1991) J. Biol. Chem. 266:7988-7994). A typical assay mixture included 0.2M glycine, 1 mM dithiothreitol, 0.5 mM NAD^+, 2.4 micromolar (μM) [1,8-^3 H] spermidine, 1 μM ec-eIF-5A(Lys), 25 micrograms (μg) bovine serum albumin, and 3-15 units of enzyme in a total volume of 20 microliters (μl). Incubations were carried out at pH 9.3 and 37° C. for 1 hour. […] Percent inhibition was plotted versus log inhibitor concentration in order to obtain graphic estimates of IC50 values, i.e., the concentrations inhibiting [^3 H]deoxyhypusine production by 50%. The IC50 values reported in the tables were calculated by fitting the data points to equation 1 where x=% inhibition and I is the inhibitor concentration. [formula] The nature of the inhibition was determined by plotting reciprocal velocities of [^3 H]deoxyhypusine production against reciprocals of [^3 H]spermidine concentrations at a constant fixed level of ec-eIF-5A(Lys) (1 μM) and at set inhibitor concentrations. […] Estimates of Ki values were made by fitting the data to equation 2; wherein v is the velocity of the reaction, V is the maximum velocity, S is the substrate concentration, Km is Michaeli's constant, Ki is the inhibition constant, and I is the inhibitor concentration. [formula] All fits were performed by means of an interactive curve-fitting program, MLAB, developed and modified at the National Institutes of Health to run on an IBM personal computer.

[2] = molecular target: T2, deoxyhypusine synthase (Rattus norvegicus, UniProt Q6AY53); conditions: earlier publications, cited from earlier work
T2 construct: full-length homotetramer; substrate was human eIF-5A precursor expressed in E. coli
T2 sequence (Q6AY53 1-369): T1 sequence (Q6AY53 1-369)

[3] = test system: deoxyhypusine synthase from HTC cells; conditions: cited from earlier work; for inhibition of deoxyhypusine synthase: 20 μM inhibitor, 1 μM spermidine, precursor from DFMO-treated HTC cells
[4] = cited from earlier work
[5] = pH 9.3, 37° C., 1 hour, 2.4 μM [3H]spermidine

Compound: N=C(N)NCCCN [Compound 46, N^1-guanyl-1,3-diaminopropane]
- inhibition of deoxyhypusine synthase (in words) [1, 5]: without inhibitory property; also recorded: no inhibition was detected

Compound: CC(C)(CCCN)NCCCN [Compound 34, 5,5-dimethylspermidine]
- inhibition of deoxyhypusine synthase (in words) [1, 5]: abolished inhibition; also recorded: failure to inhibit the enzyme

Compound: NCCCNCCCN [Compound 9, caldine]
- substrate or cofactor function for deoxyhypusine synthase ([2]; listed as caldine): no detectable substrate property
- substrate or cofactor function for deoxyhypusine synthase ([2]; listed as compound 9): fails to serve as a substrate
- inhibition of deoxyhypusine synthase (in words) ([1]; pH 9.3): some degree of inhibition

Compound: NCCCN [Compound 2, 1,3-diaminopropane]
- inhibition of deoxyhypusine synthase (in words) ([1]; pH 9.3, 37° C., 1 hour, 2.4 μM [3H]spermidine, listed as 1,3-diaminopropane): inhibit
- inhibition of deoxyhypusine synthase (in words) ([1]; pH 9.3, 37° C., 1 hour, 2.4 μM [3H]spermidine, listed as compound 2): exerts product inhibition; also recorded: inhibit the enzyme
- type of inhibition (kinetics) ([1]; varied [3H]spermidine, ec-eIF-5A(Lys) fixed at 1 μM): competitive

- inhibition of deoxyhypusine synthase (in words) [1, 5]: excellent inhibitors
Compound: N=C(N)NCCCNCCCN [Compound 48, N^1 -guanylcaldine]
- relative inhibitory potency (in words) [1]: far exceeding the parent amines, as well as their bisguanylated counterparts, in inhibitory potency; also recorded: uniformly more efficient inhibition

Compound: NCCCCN [Compound 3, putrescine]
- inhibition of deoxyhypusine synthase (in words) ([1]; pH 9.3): inhibit the enzyme

Compound: NCCCNCC(F)(F)CCN [Compound 37, 6,6-difluorospermidine]
- inhibition of deoxyhypusine synthase [3]: 90%
- Ki (in words) ([3]; HTC cell enzyme): very close to that for 1,3-diaminopropane and to the Km value for spermidine
- inhibition of deoxyhypusine synthase (in words) [1, 5]: quite strong inhibitors; also recorded: effective inhibition; also recorded: act as inhibitors
- pKa of N1-amino group [4]: 10.34
- pKa of N8-amino group [4]: 9.29

- inhibition of deoxyhypusine synthase (in words) [1, 5]: some degree of inhibition
Compound: NCCCCCNCCCN [Compound 11, N-(3-aminopropyl)cadaverine]
- substrate or cofactor function for deoxyhypusine synthase ([2]; listed as N-(3-aminopropyl)cadaverine): function as a substrate for deoxyhypusine synthase, albeit a poor one; also recorded: acts as a substrate
- substrate or cofactor function for deoxyhypusine synthase ([2]; listed as compound 11): functions as a substrate, albeit a poor one

- inhibition of deoxyhypusine synthase (in words) [1, 5]: failure to inhibit the enzyme
Compound: NCCCN1CCC(CN)CC1 [Compound 31, 1-(3-Aminopropyl)-4-aminomethylpiperidine]

- inhibition of deoxyhypusine synthase (in words) [1, 5]: excellent inhibitors
Compound: N=C(N)NCCCCCCCCN [Compound 50, N^1-guanyl-1,8-diaminooctane]
- relative inhibitory potency (in words) [1]: far exceeding the parent amines, as well as their bisguanylated counterparts, in inhibitory potency; also recorded: uniformly more efficient inhibition

Compound: NCCCC[C@H](N)C(=O)O [free lysine, lysine]
- substrate or cofactor function for deoxyhypusine synthase [2]: Neither free lysine nor synthetic 9- or 16-member peptides modeled on the amino acid sequence encompassing the lysine residue in eIF-5A precursors that undergoes modification to hypusine, function as substrates

- Ki [1]: 1200 nM
Compound: N=C(N)NCCCCCCCNC(=N)N [Compound 42, N^1,N^7-bisguanyl-1,7-diaminoheptane]
- relative inhibitory potency (in words) [1]: inhibition not widely different from its parent amine
- inhibition of deoxyhypusine synthase (in words) [1, 5]: acted as inhibitors of deoxyhypusine synthase

Compound: N=C(N)NCCCNC(=N)N [Compound 44, N^1,N^3-bisguanyl-1,3-diaminopropane]
- inhibition of deoxyhypusine synthase (in words) [1, 5]: without inhibitory property; also recorded: no inhibition was detected

Compound: NC(=O)C1=CN([C@@H]2O[C@H](COP(=O)(O)OP(=O)(O)OC[C@H]3O[C@@H](n4cnc5c(N)ncnc54)[C@H](O)[C@@H]3O)[C@@H](O)[C@H]2O)C=CC1 [NADH]
- substrate or cofactor function for deoxyhypusine synthase [2]: negligible

Compound: NCCCCNCCCN [Compound 10, spermidine]
- pKa of N1-amino group [4]: 9.94
- pKa of N8-amino group [4]: 10.81

- inhibition of deoxyhypusine synthase (in words) [1, 5]: strong inhibition
Compound: NCCCCCCCCN [Compound 7, 1,8-diaminooctane]

Compound: altered eIF-5A precursor protein, in which Lys^50 is replaced by Arg: altered eIF-5A precursor protein, in which Lys^50 is replaced by Arg
- substrate or cofactor function for deoxyhypusine synthase [2]: is not

Compound: NCCCNCCCON [Compound 39, N-(3-aminooxypropyl)-1,3-diaminopropane]
- inhibition of deoxyhypusine synthase (in words) [1, 5]: without effect; also recorded: does not function as an inhibitor
- pKa of aminooxy group ([4]; aminooxy group): 4.5-5.0

- inhibition of deoxyhypusine synthase (in words) [1, 5]: Some degree of inhibition
Compound: CC(N)CCNCCCCN (stereo not shown) [Compound 35, 1-Methyl spermidine]

Compound: N=C(N)NCCCCCCCN [Compound 49, N^1-guanyl-1,7-diaminoheptane]
- relative inhibitory potency (in words) [1]: far exceeding the parent amines, as well as their bisguanylated counterparts, in inhibitory potency; also recorded: strongest inhibition of the compounds tested; also recorded: uniformly more efficient inhibition
- Ki [1]: 9.7 nM
- inhibition of deoxyhypusine synthase (in words) [1, 5]: excellent inhibitors
- Ki, fold less than the apparent Km for spermidine ([1]; vs apparent Km for spermidine (4.5±0.7 μM)): about 450 fold

- inhibition of deoxyhypusine synthase (in words) [1, 5]: displays inhibition
Compound: NCCCCCCN [Compound 5, 1,6-diaminohexane]

- inhibition of deoxyhypusine synthase (in words) [1, 5]: failure to inhibit the enzyme
Compound: NCCCN[C@H]1CC[C@H](N)CC1 [Compound 33, N-(3-aminopropyl)-1,4-diaminocyclohexane]

Compound: N=C(N)NCCCCCCCCNC(=N)N [Compound 43, N^1,N^8-bisguanyl-1,8-diaminooctane]
- relative inhibitory potency (in words) [1]: somewhat stronger an inhibitor than guazatine (compound 40), showed no better inhibition than the parent diamine, 1,8-diaminooctane (compound 7); also recorded: inhibition not widely different from its parent amine
- inhibition of deoxyhypusine synthase (in words) [1, 5]: acted as inhibitors of deoxyhypusine synthase

Compound: N=C(N)NCCCCCCNC(=N)N [Compound 41, N^1,N^6-bisguanyl-1,6-diaminohexane]
- relative inhibitory potency (in words) [1]: inhibition not widely different from its parent amine
- inhibition of deoxyhypusine synthase (in words) [1, 5]: acted as inhibitors of deoxyhypusine synthase

Compound: NC(=O)c1ccc[n+]([C@@H]2O[C@H](COP(=O)([O-])OP(=O)(O)OC[C@H]3O[C@@H](n4cnc5c(N)ncnc54)[C@H](OP(=O)(O)O)[C@@H]3O)[C@@H](O)[C@H]2O)c1 [NADP^+]
- substrate or cofactor function for deoxyhypusine synthase [2]: negligible

Compound: NCCCNCCCCNCCCN [Compound 12, spermine]
- inhibition of deoxyhypusine synthase (in words) ([1]; pH 9.3): failure

Compound: NCCCNCCC(F)CN (stereo not shown) [7-monofluorospermidine]
- inhibition of deoxyhypusine synthase [3]: 35%

Compound: CCCCCCCCN [Compound 13]
- inhibition of deoxyhypusine synthase (in words) [1, 5]: does not appear to interact to any significant extent

Compound: CN(CCCN)CCCN [Compound 30, N^4 -methylcaldine]
- inhibition of deoxyhypusine synthase (in words) [1, 5]: devoid of inhibitory activity; also recorded: do not interact with the active site of the enzyme

- inhibition of deoxyhypusine synthase (in words) [1, 5]: failure to inhibit the enzyme
Compound: NCCCN[C@H]1CC[C@@H](N)CC1 [Compound 32, N-(3-aminopropyl)-1,4-diaminocyclohexane]

- inhibition of deoxyhypusine synthase (in words) [1, 5]: loss in binding
Compound: c1ccc(CNCCCCCCCCNCc2ccccc2)cc1 [Compound 25, N,N'-bis-benzyl-1,8-diaminooctane]

Compound: N=C(N)NCCCCN [Compound 47, agmatine]
- inhibition of deoxyhypusine synthase (in words) [1, 5]: moderate degree of inhibition; also recorded: mild degree of inhibition

- inhibition of deoxyhypusine synthase (in words) [1, 5]: somewhat reduced inhibition
- increase in IC50 by bisguanylation ([1]; vs parent caldine (45 vs 9)): 5 fold
Compound: N=C(N)NCCCNCCCNC(=N)N [Compound 45, N^1,N^7 -bisguanyl caldine]
- relative inhibitory potency (in words) [1]: inhibition not widely different from its parent amine

- inhibition of deoxyhypusine synthase (in words) [1, 5]: strong inhibition
Compound: NCCCCCCCN [Compound 6, 1,7-diaminoheptane]

- inhibition of deoxyhypusine synthase (in words) [1, 5]: does not
Compound: NCCCCCN [Compound 4, cadaverine]
